Data taken from patent EP0093484A2, “Antibacterial monic acid derivatives” (BEECHAM GROUP PLC, priority 1982, dated 1983).
Values after ≈ are worked out from the molar mass of the structure shown. Where two headings read alike, the source gives them in different places.

Experiments:
[1] = test system: M. hyorhinis ATCC 23234; test: Anti-mycoplasmal activity, MIC in Friis broth agarose; assay type: cell-based; details: Friis broth solidified with 0.9% agarose, 6 days incubation at 37°C
[2] = test system: M. suipneumoniae J2206/183b; test: as above; assay type: cell-based; details: Friis broth solidified with 0.9% agarose, 6 days incubation at 37°C
[3] = test system: P. mirabilis 889; test: Human bacteria, MIC by serial dilution in nutrient agar; assay type: cell-based; details: nutrient agar with 5% chocolated horse blood, 18 hours at 37°C
[4] = test system: Strep. pyogenes R80/421-A; test: as above; assay type: cell-based; details: nutrient agar with 5% chocolated horse blood, 18 hours at 37°C
[5] = test system: Staph. aureus W2827; test: as above; assay type: cell-based; details: nutrient agar with 5% chocolated horse blood, 18 hours at 37°C
[6] = test system: Strep. agalactiae 2788-B; test: as above; assay type: cell-based; details: nutrient agar with 5% chocolated horse blood, 18 hours at 37°C
[7] = test system: M. suipneumoniae UCD 1; test: Anti-mycoplasmal activity, MIC in Friis broth agarose; assay type: cell-based; details: Friis broth solidified with 0.9% agarose, 6 days incubation at 37°C
[8] = test system: M. bovis NCTC 10131; test: microbe, parasite or virus in culture; assay type: cell-based
[9] = test system: M. hyosynoviae ATCC 25591; test: Anti-mycoplasmal activity, MIC in Friis broth agarose; assay type: cell-based; details: Friis broth solidified with 0.9% agarose, 6 days incubation at 37°C
[10] = test system: M. suipneumoniae NB12; test: as above; assay type: cell-based; details: Friis broth solidified with 0.9% agarose, 6 days incubation at 37°C
[11] = test system: S. dublin S7; test: Veterinary bacteria, MIC by two fold serial dilution in agar
Description: (§1) The activity of the compounds of the Examples against various organisms important in veterinary infections was determined using two fold serial dilutions in Diagnostic Sensitivity Test Agar inoculated with 10^4 organisms.

[12] = test system: M. suipneumoniae LABER; test: Anti-mycoplasmal activity, MIC in Friis broth agarose; assay type: cell-based; details: Friis broth solidified with 0.9% agarose, 6 days incubation at 37°C
[13] = test system: Bord. bronchiseptica BO9; test: Veterinary bacteria, MIC by two fold serial dilution in agar
Description: as §1

[14] = test system: Past. multocida PA1; test: as above
Description: as §1

[15] = test system: M. pneumoniae ATCC 15492; test: Anti-mycoplasmal activity, MIC in Friis broth agarose; assay type: cell-based; details: Friis broth solidified with 0.9% agarose, 6 days incubation at 37°C
[16] = test system: Strep. agalactiae SPA1; test: Veterinary bacteria, MIC by two fold serial dilution in agar
Description: as §1

[17] = test system: M. suipneumoniae PW/C/210; test: Anti-mycoplasmal activity, MIC in Friis broth agarose; assay type: cell-based; details: Friis broth solidified with 0.9% agarose, 6 days incubation at 37°C
[18] = test system: M. bovigenitalium ATCC 14173; test: as above; assay type: cell-based; details: Friis broth solidified with 0.9% agarose, 6 days incubation at 37°C
[19] = test system: Sarcina lutea 8340; test: Human bacteria, MIC by serial dilution in nutrient agar; assay type: cell-based; details: nutrient agar with 5% chocolated horse blood, 18 hours at 37°C
[20] = M. bovis NCTC 10131, Friis broth solidified with 0.9% agarose, 6 days incubation at 37°C
[21] = S. dublin S7, Diagnostic Sensitivity Test Agar, 18 hours at 37°C
[22] = Bord. bronchiseptica BO9, Diagnostic Sensitivity Test Agar, 18 hours at 37°C
[23] = Past. multocida PA1, Diagnostic Sensitivity Test Agar, 18 hours at 37°C
[24] = Strep. agalactiae SPA1, Diagnostic Sensitivity Test Agar, 18 hours at 37°C
[25] = Mesomycoplasma hyorhinis, ATCC23234, 144 h, read-out: MIC
[26] = Mesomycoplasma hyopneumoniae, 144 h, read-out: MIC
[27] = Proteus mirabilis, read-out: MIC
[28] = Streptococcus pyogenes, read-out: MIC
[29] = Staphylococcus aureus, read-out: MIC
[30] = Streptococcus agalactiae, read-out: MIC
[31] = Mesomycoplasma hyopneumoniae, UCD1, 144 h, read-out: MIC
[32] = Bordetella bronchiseptica, BO9, 18 h
[33] = Micrococcus luteus, read-out: MIC
[34] = Pasteurella multocida, PA1, 18 h
[35] = Mycoplasmoides pneumoniae, ATCC15492, 144 h, read-out: MIC
[36] = Streptococcus agalactiae, SPA1, 18 h

Compound	MIC [1, 25] [µg/mL]	MIC [2, 26] [µg/mL]	MIC [3, 27] [µg/mL]	MIC [4, 28] [µg/mL]	MIC [5, 29] [µg/mL]	MIC [6, 30] [µg/mL]	MIC [7, 31] [µg/mL]	MIC ([8]; NCTC10131, 144 h) [µg/mL]	MIC ([9]; 144 h, read-out: MIC) [µg/mL]	MIC [10, 26] [µg/mL]	MIC ([11]; Salmonella enterica, S7, 18 h) [µg/mL]	MIC [12, 26] [µg/mL]	MIC [13, 32] [µg/mL]	MIC [19, 33] [µg/mL]	MIC [14, 34] [µg/mL]	MIC [15, 35] [µg/mL]	MIC [16, 36] [µg/mL]	MIC [17, 26] [µg/mL]	MIC ([18]; 144 h, read-out: MIC) [µg/mL]	other results
1-(p-Methylsulfinylphenyl)ethyl monate A [Example 8]	–	–	–	–	–	–	–	–	–	–	–	–	–	–	–	–	–	–	–	MIC [1]: 1.0 µg/mL; MIC [2]: 2.5 µg/mL; MIC [3]: >128 µg/mL; MIC [4]: 2.0 µg/mL; MIC [5]: 32 µg/mL; MIC [6]: 8.0 µg/mL; MIC [7]: 2.5 µg/mL; MIC [8, 20]: .025 µg/mL; MIC [9]: 0.5 µg/mL; MIC [10]: 2.5 µg/mL; MIC [11, 21]: >80 µg/mL; MIC [12]: 2.5 µg/mL; MIC [13, 22]: >80 µg/mL; MIC [14, 23]: 10 µg/mL; MIC [15]: 10 µg/mL; MIC [16, 24]: >80 µg/mL; MIC [17]: 1.0 µg/mL; MIC [18]: 0.1 µg/mL
CSc1ccc(COC(=O)C=C(C)CC2OCC(CC3OC3C(C)C(C)O)C(O)C2O)cc1 (stereo not drawn) [Example 1, p-Methylthiobenzyl monate A]	0.25 (≈ 0.52 µM)	0.5 (≈ 1.04 µM)	100 (≈ 208 µM)	0.1 (≈ 0.208 µM)	0.5 (≈ 1.04 µM)	1 (≈ 2.08 µM)	0.5 (≈ 1.04 µM)	≤ 0.01	0.05 (≈ 0.104 µM)	0.5 (≈ 1.04 µM)	> 80	0.25 (≈ 0.52 µM)	5 (≈ 10.4 µM)	> 100	0.156 (≈ 0.325 µM)	1 (≈ 2.08 µM)	0.312 (≈ 0.649 µM)	0.25 (≈ 0.52 µM)	0.025 (≈ 0.052 µM)	–
CC(=CC(=O)OCc1ccc([S+](C)[O-])cc1)CC1OCC(CC2OC2C(C)C(C)O)C(O)C1O (stereo not drawn) [Example 2, p- Methylsulphinylbenzyl monate A]	0.25 (≈ 0.503 µM)	0.25 (≈ 0.503 µM)	50 (≈ 101 µM)	0.5 (≈ 1.01 µM)	2.5 (≈ 5.03 µM)	1 (≈ 2.01 µM)	0.25 (≈ 0.503 µM)	≤ 0.01	0.05 (≈ 0.101 µM)	0.25 (≈ 0.503 µM)	> 80	0.25 (≈ 0.503 µM)	5 (≈ 10.1 µM)	> 100	0.625 (≈ 1.26 µM)	1 (≈ 2.01 µM)	0.625 (≈ 1.26 µM)	0.1 (≈ 0.201 µM)	0.025 (≈ 0.0503 µM)	–
CC(=CC(=O)OCc1ccc(S(C)(=O)=O)cc1)CC1OCC(CC2OC2C(C)C(C)O)C(O)C1O (stereo not drawn) [Example 3, p-Methylsulphonylbenzyl monate A]	0.1 (≈ 0.195 µM)	0.25 (≈ 0.488 µM)	50 (≈ 97.5 µM)	0.25 (≈ 0.488 µM)	2.5 (≈ 4.88 µM)	0.5 (≈ 0.975 µM)	0.25 (≈ 0.488 µM)	< 0.01	0.025 (≈ 0.0488 µM)	0.1 (≈ 0.195 µM)	> 80	0.1 (≈ 0.195 µM)	2.5 (≈ 4.88 µM)	> 100	0.025 (≈ 0.0488 µM)	0.25 (≈ 0.488 µM)	0.625 (≈ 1.22 µM)	0.1 (≈ 0.195 µM)	≤ 0.01	–
CC(=CC(=O)OCc1cccc([S+](C)[O-])c1)CC1OCC(CC2OC2C(C)C(C)O)C(O)C1O (stereo not drawn) [Example 6, m-Methylsulfinylbenzyl monate A]	5 (≈ 10.1 µM)	10 (≈ 20.1 µM)	> 100	–	12.5 (≈ 25.2 µM)	25 (≈ 50.3 µM)	10 (≈ 20.1 µM)	0.25 (≈ 0.503 µM)	5 (≈ 10.1 µM)	5 (≈ 10.1 µM)	> 80	5 (≈ 10.1 µM)	> 80	> 100	80 (≈ 161 µM)	5 (≈ 10.1 µM)	20 (≈ 40.3 µM)	5 (≈ 10.1 µM)	0.25 (≈ 0.503 µM)	–
CC(=CC(=O)OCc1cccc(S(C)(=O)=O)c1)CC1OCC(CC2OC2C(C)C(C)O)C(O)C1O (stereo not drawn) [Example 7, m-Methylsulfonylbenzyl monate A]	0.5 (≈ 0.975 µM)	1 (≈ 1.95 µM)	> 100	–	5 (≈ 9.75 µM)	5 (≈ 9.75 µM)	1 (≈ 1.95 µM)	0.025 (≈ 0.0488 µM)	0.25 (≈ 0.488 µM)	0.5 (≈ 0.975 µM)	> 80	0.5 (≈ 0.975 µM)	20 (≈ 39 µM)	> 100	2.5 (≈ 4.88 µM)	2.5 (≈ 4.88 µM)	2.5 (≈ 4.88 µM)	0.5 (≈ 0.975 µM)	0.05 (≈ 0.0975 µM)	–
CC(=CC(=O)OC(C)c1ccc(S(C)(=O)=O)cc1)CC1OCC(CC2OC2C(C)C(C)O)C(O)C1O (stereo not drawn) [Example 9, 1-(p-Methylsulfonylphenyl)ethyl monate A]	0.5 (≈ 0.949 µM)	1 (≈ 1.9 µM)	> 128	1 (≈ 1.9 µM)	16 (≈ 30.4 µM)	8 (≈ 15.2 µM)	1 (≈ 1.9 µM)	< 0.01	0.25 (≈ 0.475 µM)	1 (≈ 1.9 µM)	> 80	0.5 (≈ 0.949 µM)	80 (≈ 152 µM)	–	5 (≈ 9.49 µM)	0.5 (≈ 0.949 µM)	80 (≈ 152 µM)	–	0.05 (≈ 0.0949 µM)	–
m-Methylthiobenzyl monate A [Example 5]	–	–	–	–	–	–	–	–	–	–	–	–	–	–	–	–	–	–	–	MIC [1]: 0.25 µg/mL; MIC [2]: 0.5 µg/mL; MIC [3]: >100 µg/mL; MIC [4]: 0.1 µg/mL; MIC [5]: 0.5 µg/mL; MIC [6]: 1.0 µg/mL; MIC [7]: 0.5 µg/mL; MIC [8, 20]: 0.025 µg/mL; MIC [9]: 0.5 µg/mL; MIC [10]: 0.5 µg/mL; MIC [11, 21]: >80 µg/mL; MIC [12]: 0.25 µg/mL; MIC [13, 22]: 2.5 µg/mL; MIC [19]: >100 µg/mL; MIC [14, 23]: 2.5 µg/mL; MIC [15]: 5.0 µg/mL; MIC [16, 24]: .312 µg/mL; MIC [17]: 0.25 µg/mL; MIC [18]: 0.025 µg/mL
